Source: ChEMBL document CHEMBL1128083, “The anti-rheumatic potential of a series of 2,4-di-substituted-4H-naphtho[1,2-b]pyran-3-carbonitriles” (Bioorg Med Chem Lett, 1995)

How the values were obtained:
Rattus norvegicus [1] = organism: Rattus norvegicus; assay: Percent inhibition of Concanavalin A stimulated cell proliferation of rat spleen lymphocytes at 0.1 uM; format: functional
Rattus norvegicus [2] = organism: Rattus norvegicus; assay: Percent inhibition of Concanavalin A stimulated cell proliferation of rat spleen lymphocytes at 10 uM; format: functional
Rattus norvegicus [3] = organism: Rattus norvegicus; assay: Percent inhibition of Concanavalin A stimulated cell proliferation of rat spleen lymphocytes at 1 uM; format: functional
Oryctolagus cuniculus [4] = organism: Oryctolagus cuniculus; assay: Tested for percent inhibition of Neutral metalloprotease in rabbit chondrocytes at 10 uM concentration; toxic; format: cell-based
Rattus norvegicus [5] = organism: Rattus norvegicus; assay: Percent inhibition of Concanavalin A stimulated cell proliferation of rat spleen lymphocytes at 0.01 uM; format: functional
Oryctolagus cuniculus [6] = organism: Oryctolagus cuniculus; assay: Tested for percent inhibition of Neutral metalloprotease in rabbit chondrocytes at 0.1 uM concentration; format: cell-based
Oryctolagus cuniculus [7] = organism: Oryctolagus cuniculus; assay: Tested for percent inhibition of Neutral metalloprotease in rabbit chondrocytes at 1 uM concentration; format: cell-based
Rattus norvegicus [8] = organism: Rattus norvegicus; assay: Percent inhibition of Concanavalin A stimulated cell proliferation of rat spleen lymphocytes at 0.001 uM; format: functional
Oryctolagus cuniculus [9] = organism: Oryctolagus cuniculus; assay: Tested for percent inhibition of Neutral metalloprotease in rabbit chondrocytes at 10 uM concentration; format: cell-based
[10] = Half life was evaluated; format: ADME
[11] = Maximum concentration in plasma at Tmax; format: ADME, organism-based
Rattus norvegicus [12] = organism: Rattus norvegicus; assay: Percent reduction in arthritis score was measured in CP-20961 injected rats on day 16; format: functional; parameters: scale not given: the % may be the effect or the level left
[13] = Time at which the maximum concentration is achieved; format: ADME
Rattus norvegicus [14] = organism: Rattus norvegicus; assay: Percent reduction in arthritis score was measured in CP-20961 injected rats; NR is no reduction; format: functional, organism-based

Row | Compound | inhibition at 0.1 µM (Rattus norvegicus [1]) | inhibition at 10 µM (Rattus norvegicus [2]) | inhibition at 1 µM (Rattus norvegicus [3]) | inhibition (Oryctolagus cuniculus [4]) | inhibition at 0.01 µM (Rattus norvegicus [5]) | inhibition (Oryctolagus cuniculus [6]) | inhibition (Oryctolagus cuniculus [7]) | inhibition at 0.001 µM (Rattus norvegicus [8]) | inhibition (Oryctolagus cuniculus [9]) | half-life [10] | Cmax [11] | Activity (Rattus norvegicus [12]) | Tmax [13] | Activity (Rattus norvegicus [14])
1 | N#CC1=C(N)Oc2c(ccc3ccccc23)C1c1ccc(F)c(Cl)c1 (stereo not drawn) | 83% | 98% | 86% | 81% | 38% | 37% | 111% | – | – | – | – | – | – | –
2 | N#CC1C(=O)NC2=C(CCc3ccccc32)C1c1cccc([N+](=O)[O-])c1 (stereo not drawn) | 6% | 22% | 15% | – | 8% | -7% | 36% | 9% | 20% | – | – | – | – | –
3 | N#CC1=C(N)Oc2c(ccc3ccccc23)C1c1cccc([N+](=O)[O-])c1 (stereo not drawn) | 89% | 99% | 95% | – | 73% | 74% | 76% | 33% | 102% | ~1 h | – | – | – | –
4 | N#CC1=C(N)OC2=C(CCc3ccccc32)C1c1cccc([N+](=O)[O-])c1 (stereo not drawn) | 87% | 99% | 95% | – | 58% | 39% | 76% | 29% | 104% | – | – | – | – | –
5 | N#Cc1c(O)nc2c(c1-c1cccc([N+](=O)[O-])c1)CCc1ccccc1-2 | – | – | – | – | – | 36% | 3% | – | 36% | – | – | – | – | –
6 | N#CC1=C(N2C(=O)CCC2=O)Oc2c(ccc3ccccc23)C1c1cccnc1 (stereo not drawn) | -5% | 87% | 85% | – | -6% | – | 17% | 7% | 25% | – | 55 ng/mL | 41% | 0.5 h | –
7 | N#CC1=C(n2cccc2)Oc2c(ccc3ccccc23)C1c1cccc([N+](=O)[O-])c1 (stereo not drawn) | -7% | 87% | 82% | – | – | 1% | -5% | – | 4% | – | – | – | – | –
8 | N#Cc1c(N)nc2c(c1-c1cccc([N+](=O)[O-])c1)CCc1ccccc1-2 | 23% | 46% | 23% | – | 15% | 8% | 36% | 13% | 42% | – | – | – | – | –
9 | N#CC1=C(N2C(=O)CCC2=O)Oc2c(ccc3ccccc23)C1c1cccc([N+](=O)[O-])c1 (stereo not drawn) | -4% | 97% | 87% | – | 1% | 17% | 69% | 9% | 86% | – | 5 ng/mL | 48% | 6 h | –
10 | N#CC1=C(N2C(=O)CCC2=O)Oc2c(ccc3ccccc23)C1c1ccc(F)c(Cl)c1 (stereo not drawn) | 10% | 98% | 92% | – | -16% | 26% | 53% | 18% | 111% | – | 178 ng/mL | – | 4 h | No reduction
11 | O=C1CC(c2cccc([N+](=O)[O-])c2)c2ccc3ccccc3c2O1 (stereo not drawn) | 9% | 15% | 2% | – | 6% | – | – | 19% | – | – | – | – | – | –
12 | N#CC1=C(N)Oc2c(ccc3ccccc23)C1c1cccnc1 (stereo not drawn) | 89% | – | 95% | – | 11% | 75% | 83% | 0% | 100% | – | – | – | – | –
